# Measurements from article PMC10449621, “Engineering cellular communication between light-activated synthetic cells and bacteria” (Nature Chemical Biology, 2023).
# Several values for one entry are separate records, joined by “and”; a condition that tells them apart may be missing. Equal entries are not always repeated.
# Experiments:
# [1] = tested on: BjaRS107R (B0034|CTG) receiver cells; experiment: BjaR receiver cell AHSL dose-response (gfp reporter, plate reader); assay type: cell-based, E. coli XL10-Gold
# Experimental: (§1) After four rounds of random mutagenesis, ON-selection and outgrowth, the OFF- and ON-states of 45 BjaR variants were screened by measuring their GFP fluorescence in the absence and presence of 1 nM IV-HSL. […] To understand the true impact of these mutations on receiver cell performance, the bjaRS107R (CTG) and bjaRWT (ACG) genes were cloned back into the reporter plasmid backbone without kanR.
# (§2) The BjaR reporter plasmids were retransformed into E. coli XL10-Gold cells for each experiment. A single colony was used to inoculate 5 ml LB + Amp media and incubated at 37 °C, 225 r.p.m. overnight. Overnight cultures were diluted 1/250 or 1/500 in 5 ml M9 minimal media + Amp and incubated at 37 °C, 225 r.p.m. for 3 h and 45 min (until OD600 = ~0.075). Cultures were diluted down to OD600 = 0.05 with M9 minimal media + Amp, and 200 µl was added to wells of a 96-well plate containing 1 µl IV-HSL dissolved in DMSO or 1 µl BjaI CFPS reactions (IV-HSL concentrations obtained from serial dilution from 63.2 µM to 632 pM; final DMSO concentration = 0.5%). Cells were incubated at 37 °C, 800 r.p.m., in a thermomixer with a heated lid for 4 h. Fluorescence and OD600 were measured in a Tecan M1000 infinite plate reader (excitation, 488 nm; emission, 510 nm; bandwidth, 5 nm; gain, 101 and z position, 21,311 µm). The dose–response curves were fitted to the function indicated by Eq. (1), where a = maximal fluorescence output, b = basal fluorescence output, X = concentration of AHSL, GFP = fluorescence at the given condition, EC50 = AHSL at 50% maximal fluorescence output and h = hill coefficient. EC50 and h were derived using the nonlinear regression model based on Eq. (1), in MATLAB. A summary of the dose–response data is available in Supplementary Table 1.1 GFP=b+a−b/1+10^logEC50−X×h
# [2] = tested on: BjaRWT (B0034|ACG) receiver cells; experiment: as above; assay type: cell-based, E. coli XL10-Gold
# Experimental: as §1, §2
# [3] = Escherichia coli, IV-HSL-activated gfp expression
structure (smiles),measurement,setting,value
"CC(C)CC(=O)N[C@H]1CCOC1=O [IV-HSL, N-isovaleryl-L-homoserine lactone]",EC50,[1]; [3],0.00044 ± 4e-05 µM
same,GFP,[1]; Log([ASHL]) -6.5,37925 and 45810 and 36660
same,Mean normalised fluorescence,[1]; Log([ASHL]) -6.5,184153
same,Normalised fluorescence,[1]; Log([ASHL]) -6.5,205027 and 170089 and 177344
same,GFP,[1]; Log([ASHL]) -7,36122 and 43880 and 35340
same,Mean normalised fluorescence,[1]; Log([ASHL]) -7,165547
same,Normalised fluorescence,[1]; Log([ASHL]) -7,185321 and 153601 and 157719
same,GFP,[1]; Log([ASHL]) -7.5,35735 and 43795 and 35365
same,Mean normalised fluorescence,[1]; Log([ASHL]) -7.5,163310
same,Normalised fluorescence,[1]; Log([ASHL]) -7.5,180638 and 151602 and 157690
same,GFP,[1]; Log([ASHL]) -8,43912 and 35147 and 35505
same,Mean normalised fluorescence,[1]; Log([ASHL]) -8,161376
same,Normalised fluorescence,[1]; Log([ASHL]) -8,150185 and 151700 and 182243
same,GFP,[1]; Log([ASHL]) -8.5,44967 and 35318 and 37269
same,Mean normalised fluorescence,[1]; Log([ASHL]) -8.5,147580
same,Normalised fluorescence,[1]; Log([ASHL]) -8.5,140866 and 144147 and 157727
same,GFP,[1]; Log([ASHL]) -9,41968 and 33264 and 37415
same,Mean normalised fluorescence,[1]; Log([ASHL]) -9,127915
same,Normalised fluorescence,[1]; Log([ASHL]) -9,124650 and 118620 and 140474
same,GFP,[1]; Log([ASHL]) -9.5,22707 and 17817 and 19857
same,Mean normalised fluorescence,[1]; Log([ASHL]) -9.5,69560.7
same,Normalised fluorescence,[1]; Log([ASHL]) -9.5,65949.9 and 69200.5 and 73531.6
same,GFP,[1]; Log([ASHL]) -10,5295 and 3943 and 4882
same,Mean normalised fluorescence,[1]; Log([ASHL]) -10,15714.4
same,Normalised fluorescence,[1]; Log([ASHL]) -10,15242.3 and 14666.4 and 17234.6
same,GFP,[1]; Log([ASHL]) -10.5,1534 and 1232 and 1622
same,Mean normalised fluorescence,[1]; Log([ASHL]) -10.5,4749.74
same,Normalised fluorescence,[1]; Log([ASHL]) -10.5,4305.92 and 4298.44 and 5644.87
same,GFP,[1]; Log([ASHL]) -11,1122 and 884 and 1057
same,Mean normalised fluorescence,[1]; Log([ASHL]) -11,3184.98
same,Normalised fluorescence,[1]; Log([ASHL]) -11,3030.92 and 3019.01 and 3505.01
same,GFP,[1]; Log([ASHL]) -11.5,784 and 731 and 617
same,Mean normalised fluorescence,[1]; Log([ASHL]) -11.5,2156.19
same,Normalised fluorescence,[1]; Log([ASHL]) -11.5,2102.93 and 2315.04 and 2050.6
same,fold activation of gfp expression,[1]; with vs without IV-HSL,~ 88 fold
same,EC50,[2]; [3],0.0223 ± 0.00259 µM
same,GFP,[2]; Log([ASHL]) -6.5,41705 and 34148 and 40466
same,Mean normalised fluorescence,[2]; Log([ASHL]) -6.5,152634
same,GFP,[2]; Log([ASHL]) -7,36443 and 32999 and 38903
same,Mean normalised fluorescence,[2]; Log([ASHL]) -7,132540
same,GFP,[2]; Log([ASHL]) -7.5,26920 and 30479 and 35001
same,Mean normalised fluorescence,[2]; Log([ASHL]) -7.5,111442
same,GFP,[2]; Log([ASHL]) -8,23596 and 24216 and 12337
same,Mean normalised fluorescence,[2]; Log([ASHL]) -8,70550.8
same,Mean normalised fluorescence,[2]; Log([ASHL]) -8.5,28355.7
same,Mean normalised fluorescence,[2]; Log([ASHL]) -9,6838.99
same,Mean normalised fluorescence,[2]; Log([ASHL]) -9.5,1496.47
same,GFP,[2]; Log([ASHL]) -10,268 and 258 and 219
same,Mean normalised fluorescence,[2]; Log([ASHL]) -10,638.735
same,GFP,[2]; Log([ASHL]) -10.5,198 and 199 and 217
same,Mean normalised fluorescence,[2]; Log([ASHL]) -10.5,483.533
same,GFP,[2]; Log([ASHL]) -11,195 and 198 and 217
same,Mean normalised fluorescence,[2]; Log([ASHL]) -11,487.314
same,GFP,[2]; Log([ASHL]) -11.5,199 and 225 and 193
same,Mean normalised fluorescence,[2]; Log([ASHL]) -11.5,497.83
same,fold activation of gfp expression,[2]; with vs without IV-HSL,~ 309 fold
